{"source": "paper PMC4492759", "about": "“Pharmacological profiling of the hemodynamic effects of cannabinoid ligands: a combined in vitro and in vivo approach” (Pharmacology Research & Perspectives, 2015)", "assay_type_in_all_cases": "biochemical", "key": {"rat CB1": {"biological_target": "T1, rat CB1 (Rattus norvegicus, UniProt P20272)", "T1 construct": "expressed in transfected cells; host or cells: HEK293s, transient transfection; membranes prepared", "T1 sequence (P20272 whole entry)": "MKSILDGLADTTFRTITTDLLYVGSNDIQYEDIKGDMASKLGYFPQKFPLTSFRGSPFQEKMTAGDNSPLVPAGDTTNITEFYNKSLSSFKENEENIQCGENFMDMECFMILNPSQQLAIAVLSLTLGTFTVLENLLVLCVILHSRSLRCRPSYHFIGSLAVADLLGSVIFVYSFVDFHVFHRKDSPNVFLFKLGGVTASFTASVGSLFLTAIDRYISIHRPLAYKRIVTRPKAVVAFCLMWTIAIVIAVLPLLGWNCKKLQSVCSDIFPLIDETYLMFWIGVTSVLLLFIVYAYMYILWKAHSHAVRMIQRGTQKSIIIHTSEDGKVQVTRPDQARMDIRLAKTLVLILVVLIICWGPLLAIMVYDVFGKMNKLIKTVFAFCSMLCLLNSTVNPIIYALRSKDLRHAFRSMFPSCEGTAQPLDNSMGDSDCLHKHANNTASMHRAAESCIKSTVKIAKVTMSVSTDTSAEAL", "test": "[35S]-GTPγS binding, membranes of HEK293s cells transfected with rat CB1", "settings": "agonist mode; mean ± SEM, at least three experiments; read-out: CB1 EC50, Rat", "method": "(§1) Antagonist assays were performed similarly, with the addition of an EC80 concentration of CP55940 as a nonselective CB1/CB2 agonist in conjunction with the ligand to be tested. Nonspecific binding was determined in the presence of 20 μmol/L unlabeled GTPγS. The reaction was terminated by addition of ice-cold wash buffer (50 mmol/L Tris-HCl, 5 mmol/L MgCl2, 50 mmol/L NaCl; pH 7.4) followed by rapid filtration under vacuum through 96-well B-glass fiber filter plates (PerkinElmer, Waltham, Massachusetts, USA) using a Biomek FX (Beckman Coulter, Bromma, Sweden). The filter plates were dried (30 min at 50°C) before scintillation liquid (PerkinElmer) was added onto the filters and the bound radioactivity was determined using a scintillation counter (Wallac). Data were fitted with a four-parameter logistic fit using the equation y = A + (B − A)/1 + ((C/x)^D), where A is no activation, B is full activation, C is the EC50, and D is the Hill slope. All data were based on at least three independent experiments."}, "mouse CB1": {"biological_target": "T2, mouse CB1 (Mus musculus, UniProt P47746)", "T2 construct": "expressed in transfected cells; host or cells: HEK293s, transient transfection; membranes prepared", "T2 sequence (P47746 whole entry)": "as the sequence (P20272 whole entry) above, with E95D counted along it", "test": "[35S]-GTPγS binding, membranes of HEK293s cells transfected with mouse CB1", "settings": "agonist mode; mean ± SEM, at least three experiments; read-out: CB1 EC50, Mouse", "method": "as §1"}, "rat GPR55 [1]": {"biological_target": "T3, rat GPR55 (Rattus norvegicus, UniProt F1MAK4)", "T3 construct": "expressed in transfected cells; host or cells: HEK293s, transient transfection; membranes prepared", "T3 sequence (F1MAK4 1-319)": "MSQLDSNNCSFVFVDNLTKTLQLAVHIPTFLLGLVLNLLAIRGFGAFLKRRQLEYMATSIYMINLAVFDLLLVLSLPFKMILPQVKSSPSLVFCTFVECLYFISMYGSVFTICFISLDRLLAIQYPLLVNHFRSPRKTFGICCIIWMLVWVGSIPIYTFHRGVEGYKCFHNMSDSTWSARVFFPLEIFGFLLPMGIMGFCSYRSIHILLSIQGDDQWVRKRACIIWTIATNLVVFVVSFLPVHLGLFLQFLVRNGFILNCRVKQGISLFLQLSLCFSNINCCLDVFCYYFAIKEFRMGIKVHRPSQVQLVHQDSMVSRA", "test": "[35S]-GTPγS binding, membranes of HEK293s cells transfected with rat GPR55", "settings": "agonist mode; mean ± SEM, at least three experiments; read-out: GPR55 EC50, Rat", "method": "as §1, with “HEK293s cells were transiently transfected with cDNA encoding rat or mouse CB1 or GPR55 and membranes were prepared as previously described (Ryberg et al. [2007]). In short, agonist activities in [^35S]-GTPγS binding assays were determined by the addition of ligand at 30°C for 45 min in membrane buffer [50 mmol/L NaCl, 5 mmol/L MgCl2, 0.5 mmol/L EDTA, 25 mmol/L HEPES (all Sigma, Gillingham, Dorset, UK); pH 7.4] containing 0.05 μg μL^−1 of membrane protein with 0.01% BSA, 25 μmol/L guanosine 5′-diphosphate (GDP), 100 μmol/L dithiothreitol (DTT), and 0.53 nmol/L [^35S]GTPγS (PerkinElmer) in a final volume of 200 μL. Antagonist” for “Antagonist”"}, "rat GPR55 [2]": {"system": "rat GPR55", "test": "[35S]-GTPγS binding, membranes of HEK293s cells transfected with rat GPR55", "settings": "GTPγS binding, GPR55 activation", "method": "as §1, with “HEK293s cells were transiently transfected with cDNA encoding rat or mouse CB1 or GPR55 and membranes were prepared as previously described (Ryberg et al. [2007]). In short, agonist activities in [^35S]-GTPγS binding assays were determined by the addition of ligand at 30°C for 45 min in membrane buffer [50 mmol/L NaCl, 5 mmol/L MgCl2, 0.5 mmol/L EDTA, 25 mmol/L HEPES (all Sigma, Gillingham, Dorset, UK); pH 7.4] containing 0.05 μg μL^−1 of membrane protein with 0.01% BSA, 25 μmol/L guanosine 5′-diphosphate (GDP), 100 μmol/L dithiothreitol (DTT), and 0.53 nmol/L [^35S]GTPγS (PerkinElmer) in a final volume of 200 μL. Antagonist” for “Antagonist”"}}}
{"smiles": "C=C(C)[C@@H]1CCC(C)=C[C@H]1c1c(C)cc(O)cc1O", "note": "[O-1602]", "values": [{"measurement": "EC50", "setting": "rat CB1", "result": "> 30", "unit": "µM"}, {"measurement": "EC50", "setting": "mouse CB1", "result": "> 30", "unit": "µM"}, {"measurement": "EC50", "setting": "rat GPR55 [1]", "result": "0.02 ± 0.003", "unit": "µM"}, {"measurement": "potency at GPR55 relative to that of ACEA", "setting": "rat GPR55 [2]", "result": "approximately 5 times"}]}
